From patent US8232272B2, “Benzimidazoledihydrothiadiazinone derivatives as fructose-1,6-bisphosphatase inhibitors, and pharmaceutical compositions comprising same” (Merck Patent Gesellschaft mit beschränkter Haftung, priority 2007, dated 2012) come the findings set out here.

Counter-ions that a name gives are not always drawn.

The target of one series is T1, recombinant human liver fructose-1,6-bisphosphatase (Homo sapiens, UniProt P09467).
T1 sequence (P09467 1-338): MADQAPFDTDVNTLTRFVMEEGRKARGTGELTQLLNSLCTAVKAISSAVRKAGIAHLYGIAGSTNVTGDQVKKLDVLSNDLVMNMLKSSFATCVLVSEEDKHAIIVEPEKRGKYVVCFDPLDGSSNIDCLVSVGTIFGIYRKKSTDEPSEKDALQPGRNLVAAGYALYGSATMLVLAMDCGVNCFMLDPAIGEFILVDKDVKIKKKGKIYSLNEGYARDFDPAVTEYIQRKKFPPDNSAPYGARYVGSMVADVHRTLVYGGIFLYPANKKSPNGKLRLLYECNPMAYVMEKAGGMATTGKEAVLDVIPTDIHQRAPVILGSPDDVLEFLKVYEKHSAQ
Briefly: Inhibition of recombinant human liver fructose-1,6-bisphosphatase (spectrophotometric coupled enzyme assay). It is filed as biochemical. Conditions: 0.167 mM fructose-1,6-bisphosphate, pH 7.5, room temperature, 30 minutes at 340 nm, read-out: Inhibition of human F-1,6-BPase IC50.
Description: […]
As for `CC1SC(=O)N(C(C)C)N=C1c1ccc2c(c1)nc(-c1cccc(F)c1)n2C` (stereo not shown) [Example 12-3, 5-[2-(3-fluorophenyl)-1-methyl-1H-benzimidazol-5-yl]-3-isopropyl-6-methyl-3,6-dihydro-2H-1,3,4-thiadiazin-2-one], the IC50 (usually the concentration needed to halve the response being measured) was 7 µM.
Still for that read-out and setting: for `CCCN1N=C(c2ccc3c(c2)nc(-c2cccc(F)c2)n3C)C(C)SC1=O` (stereo not shown) [Example 12-6, 5-[2-(3-fluorophenyl)-1-methyl-1H-benzimidazol-5-yl]-6-methyl-3-propyl-3,6-dihydro-2H-1,3,4-thiadiazin-2-one] the value was 8.5 µM.
As to `COc1cccc(-c2nc3cc(C4=NN(C)C(=O)SC4)ccc3n2C2CCCCCC2)c1` [Example 12-7, 5-[1-cycloheptyl-2-(3-methoxyphenyl)-1H-benzimidazol-5-yl]-3-methyl-3,6-dihydro-2H-1,3,4-thiadiazin-2-one], the 50% inhibitory concentration (IC50) is 36 µM.
Regarding `COc1cc(-c2nc3cc(C4=NNC(=O)SC4C)ccc3[nH]2)ccc1[S+](C)[O-]` (stereo not shown) [Example 26-3, 5-{2-[3-methoxy-4-(methylsulfinyl)phenyl]-1H-benzimidazol-5-yl}-6-methyl-3,6-dihydro-2H-1,3,4-thiadiazin-2-one hydrochloride], the IC50 stood at 6.4 µM.
The same measure, in the same setting: for `CC1SC(=O)NN=C1c1ccc2[nH]c(-c3ccc(-n4ccnc4)cc3)nc2c1` (stereo not shown) [Example 26-4, 5-{2-[4-(1H-imidazol-1-yl)phenyl]-1H-benzimidazol-5-yl}-6-methyl-3,6-dihydro-2H-1,3,4-thiadiazin-2-one dihydrochloride] the value was 3.6 µM.

A further series concerns rat hepatocyte primary cultures (hepatic glucose production). Briefly: Hepatic production of glucose in rat hepatocyte primary cultures. The class given is cell-based, Wistar rat. As to conditions: rat hepatocytes incubated 3 hours with dihydroxyacetone (DHA) as substrate, control = DHA without compounds. An excerpt:
Effects of the Various Compounds Described Previously on the Hepatic Production of Glucose in Rat Hepatocyte Primary Cultures
The hepatocytes are isolated from Wistar rat liver via the collagenase perfusion technique described by Seglen (Methods Cell Biol. 1975; 13, 29-83). The cell viability is confirmed by the exclusion test with trypan blue. The isolated hepatocytes are suspended in a William's medium supplemented with foetal calf serum (10%) in 6-well plates. After a 4-hour attachment period, the medium is aspirated to remove the cell debris and replaced with a serum-free and glucose-free MEM medium. The hepatocytes are then cultured for 16 to 18 hours (37° C.; 5% CO2). At the end of culturing and after having aspirated the medium, the glucose production is measured by incubating the hepatocytes for 3 hours in a Krebs buffer supplemented with dihydroxyacetone (DHA) as neoglucogenesis substrate, in the presence or absence of the various compounds described previously. The amount of glucose in the medium is measured in each culture well via a test with glucose oxidase (GOD). The cell protein content is evaluated via the Lowry method. The results are expressed in nanomoles of glucose produced per mg of cell protein. The activity of the test compounds is expressed as a percentage of the control (production of glucose in the presence of DHA but without compounds).
Inhibition of Hepatic Glucose Production
`COc1cccc(-c2nc3cc(C4=NNC(=O)SC4C)ccc3[nH]2)c1` (stereo not shown) [Example 26, 5-[2-(3-methoxyphenyl)-1H-benzimidazol-5-yl]-6-methyl-3,6-dihydro-2H-1,3,4-thiadiazin-2-one]: the “Hepatic glucose production. % of the control at 30 μM” value was 38 % of the control.
The same measure, in the same setting: as for `COc1cc(-c2nc3cc(C4=NNC(=O)SC4C)ccc3[nH]2)ccc1[S+](C)[O-]` (stereo not shown) [Example 26-3, 5-{2-[3-methoxy-4-(methylsulfinyl)phenyl]-1H-benzimidazol-5-yl}-6-methyl-3,6-dihydro-2H-1,3,4-thiadiazin-2-one hydrochloride], the figure is 34 % of the control; as for `CC1SC(=O)NN=C1c1ccc2[nH]c(-c3ccc(-n4ccnc4)cc3)nc2c1` (stereo not shown) [Example 26-4, 5-{2-[4-(1H-imidazol-1-yl)phenyl]-1H-benzimidazol-5-yl}-6-methyl-3,6-dihydro-2H-1,3,4-thiadiazin-2-one dihydrochloride], 28 % of the control.

Test system in the next series: not given
Test: not given
Settings: not given
On to `COc1cccc(-c2nc3cc(C4=NNC(=O)SC4C)ccc3n2CC(C)C)c1` (stereo not shown), for which the melting point (as a rule, the temperature of the solid-liquid transition) was 100 to 105 °C.
The compound `COc1cccc(-c2nc3cc(C4=NNC(=O)SC4)ccc3n2CC(C)C)c1` [Example 11, 5-[1-isobutyl-2-(3-methoxyphenyl)-1H-benzimidazol-5-yl]-3,6-dihydro-2H-1,3,4-thiadiazin-2-one] came in with a melting point of 207 to 209 °C.
The same measure, in the same setting: for `CCn1c(-c2cccc(F)c2)nc2cc(C3=NNC(=O)SC3)ccc21` [Example 11-4, 5-[1-ethyl-2-(3-fluorophenyl)-1H-benzimidazol-5-yl]-3,6-dihydro-2H-1,3,4-thiadiazin-2-one] the value was 214 to 216 °C.
On the same count and under the same terms, as for `CCCC1SC(=O)NN=C1c1ccc2c(c1)nc(-c1cccc(C(F)(F)F)c1)n2C` (stereo not shown) [Example 11-5, 5-{1-methyl-2-[3-(trifluoromethyl)phenyl]-1H-benzimidazol-5-yl}-6-propyl-3,6-dihydro-2H-1,3,4-thiadiazin-2-one], the figure is 190 to 192 °C; as for `CCn1c(-c2cccc(OC)c2)nc2cc(C3=NNC(=O)SC3)ccc21` [Example 11-6, 5-[1-ethyl-2-(3-methoxyphenyl)-1H-benzimidazol-5-yl]-3,6-dihydro-2H-1,3,4-thiadiazin-2-one], 221 to 223 °C.
